Experimental data taken from patent publication US20130040935A1, “CYCLIC KETO-ENOLS FOR THERAPY” (BAYER INTELLECTUAL PROPERTY GMBH, priority 2010, published 2013).
pIC50: −log10 of the molar value. Where two headings read alike, the source gives them in different places.

What was measured:
[1] = molecular target: T1, human ACC1 (acetyl-coenzyme A carboxylase alpha transcript variant 1) (Homo sapiens, UniProt Q13085); assay: Human ACC1 enzyme assay, Assay B1 (ADP-Glo); format: biochemical
T1 construct: FLAG (C); made in house; host or cells: baculovirus-infected insect cells (Hi5)
Procedure: Essentially, the enzyme activity is measured by quantifying the adenosine diphosphate (ADP) formed as a byproduct of the enzyme reactions using the ADP-Glo™ detection system from Promega. In this test, initially the adenosine triphosphate (ATP) not consumed in the enzyme reaction is converted quantitatively with an adenylate cyclase (“ADP-GLO reagent”) into cAMP, the adenylate cyclase is then stopped and (“kinase detection reagent”) the ADP formed is subsequently converted into ATP, which is converted in a luciferase-based reaction into a glow luminescence signal.
The concentration of the hACC1 was adapted to the respective activity of the enzyme and adjusted such that the assay operated in the linear range. […] The amount of light emitted was taken as a measure for the amount of ADP formed and thus for the enzyme activity of the hACC1.

[2] = molecular target: human ACC2 (acetyl-coenzyme A carboxylase 2) (Homo sapiens, UniProt O00763); assay: Human ACC2 enzyme assay, Assay B2 (ADP-Glo);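 also: human ACC2 activity read as ADP product, detected by luciferase glow luminescence after residual ATP removal, enzyme near 2 ng/µl in linear range, detection steps at 22 °C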
[3] = Assay B1, read-out: ACC 1 (=B1) IC50

Chain of human ACC2 (acetyl-coenzyme A carboxylase 2) (O00763 27-2458 limits assumed): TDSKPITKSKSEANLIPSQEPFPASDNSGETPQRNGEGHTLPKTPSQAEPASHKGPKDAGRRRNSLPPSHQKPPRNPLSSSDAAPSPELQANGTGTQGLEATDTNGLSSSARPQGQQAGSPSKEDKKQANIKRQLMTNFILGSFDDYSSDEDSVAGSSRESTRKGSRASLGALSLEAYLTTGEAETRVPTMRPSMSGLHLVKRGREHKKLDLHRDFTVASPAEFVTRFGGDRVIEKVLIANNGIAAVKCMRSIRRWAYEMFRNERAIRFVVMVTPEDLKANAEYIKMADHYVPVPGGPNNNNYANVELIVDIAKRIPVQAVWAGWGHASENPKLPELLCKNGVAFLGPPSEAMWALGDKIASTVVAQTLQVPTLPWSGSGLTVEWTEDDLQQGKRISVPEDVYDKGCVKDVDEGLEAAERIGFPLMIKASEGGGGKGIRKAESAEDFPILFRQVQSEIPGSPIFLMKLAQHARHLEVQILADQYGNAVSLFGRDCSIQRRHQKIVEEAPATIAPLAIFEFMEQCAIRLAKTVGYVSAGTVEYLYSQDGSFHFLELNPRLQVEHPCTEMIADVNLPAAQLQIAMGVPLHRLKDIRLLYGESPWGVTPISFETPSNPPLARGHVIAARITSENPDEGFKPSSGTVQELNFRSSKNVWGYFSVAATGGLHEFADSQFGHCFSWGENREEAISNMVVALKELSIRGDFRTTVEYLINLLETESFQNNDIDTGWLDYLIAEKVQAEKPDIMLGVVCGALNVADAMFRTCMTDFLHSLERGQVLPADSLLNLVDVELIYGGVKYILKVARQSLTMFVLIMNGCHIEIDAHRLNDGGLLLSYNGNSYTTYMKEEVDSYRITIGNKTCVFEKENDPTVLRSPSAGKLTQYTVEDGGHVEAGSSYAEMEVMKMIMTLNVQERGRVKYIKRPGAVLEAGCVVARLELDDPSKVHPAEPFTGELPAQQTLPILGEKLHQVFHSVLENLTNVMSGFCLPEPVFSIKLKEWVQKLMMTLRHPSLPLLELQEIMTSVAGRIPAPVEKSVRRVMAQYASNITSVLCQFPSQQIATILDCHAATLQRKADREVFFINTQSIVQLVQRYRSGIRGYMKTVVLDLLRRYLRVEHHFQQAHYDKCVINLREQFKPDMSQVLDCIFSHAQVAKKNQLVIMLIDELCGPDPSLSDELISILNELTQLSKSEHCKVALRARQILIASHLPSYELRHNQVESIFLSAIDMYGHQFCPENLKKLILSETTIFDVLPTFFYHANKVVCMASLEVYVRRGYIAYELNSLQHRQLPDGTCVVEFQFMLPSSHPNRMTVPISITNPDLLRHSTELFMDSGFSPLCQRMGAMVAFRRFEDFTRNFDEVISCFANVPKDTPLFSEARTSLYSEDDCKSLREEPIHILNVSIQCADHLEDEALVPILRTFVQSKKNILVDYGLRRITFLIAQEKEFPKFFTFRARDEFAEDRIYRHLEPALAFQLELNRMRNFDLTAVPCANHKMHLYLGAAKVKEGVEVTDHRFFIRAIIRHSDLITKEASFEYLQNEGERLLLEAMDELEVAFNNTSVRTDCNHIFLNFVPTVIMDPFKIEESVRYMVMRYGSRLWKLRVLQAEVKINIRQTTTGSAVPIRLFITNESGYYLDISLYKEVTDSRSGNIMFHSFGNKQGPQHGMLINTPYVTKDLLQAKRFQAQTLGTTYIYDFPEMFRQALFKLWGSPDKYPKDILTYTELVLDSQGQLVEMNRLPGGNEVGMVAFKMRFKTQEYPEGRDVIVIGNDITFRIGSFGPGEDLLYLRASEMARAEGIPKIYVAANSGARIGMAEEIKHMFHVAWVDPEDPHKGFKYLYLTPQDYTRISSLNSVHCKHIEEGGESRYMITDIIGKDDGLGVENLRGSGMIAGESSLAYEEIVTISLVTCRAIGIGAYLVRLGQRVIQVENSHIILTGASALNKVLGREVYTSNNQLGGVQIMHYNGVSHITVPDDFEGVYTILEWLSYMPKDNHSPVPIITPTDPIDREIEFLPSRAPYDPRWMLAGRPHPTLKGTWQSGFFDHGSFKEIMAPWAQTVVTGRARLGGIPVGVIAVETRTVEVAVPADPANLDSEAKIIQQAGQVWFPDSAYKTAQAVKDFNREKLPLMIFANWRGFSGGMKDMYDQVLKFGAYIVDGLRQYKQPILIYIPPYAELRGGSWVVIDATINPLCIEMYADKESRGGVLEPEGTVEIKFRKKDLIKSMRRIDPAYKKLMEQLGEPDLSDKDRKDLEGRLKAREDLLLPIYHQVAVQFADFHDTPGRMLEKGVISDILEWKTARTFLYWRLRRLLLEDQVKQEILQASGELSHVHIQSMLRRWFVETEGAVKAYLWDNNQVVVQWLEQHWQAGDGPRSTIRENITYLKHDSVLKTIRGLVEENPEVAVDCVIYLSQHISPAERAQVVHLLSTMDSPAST

SMILES | pIC50 [1, 3] | pIC50 [2] | pIC50 [1]
CCOCCO[C@@H]1CC[C@@]2(C1)NC(=O)C(c1cc(-c3ccc(Cl)cc3)ccc1C)=C2O (relative stereo) [1-50, rel-(5R,7S)-3-(4′-chloro-4-methylbiphenyl-3-yl)-7-(2-ethoxyethoxy)-4-hydroxy-1-azaspiro[4.4]non-3-en-2-one] | 4.93 | < 4.70 | 
COCCO[C@@H]1CCC[C@]2(C1)NC(=O)C(c1cc(-c3ccc(Cl)cc3)ccc1Cl)=C2O (relative stereo) [1-74, rel-(5R,7R)-3-(4,4′-dichlorobiphenyl-3-yl)-4-hydroxy-7-(2-methoxyethoxy)-1-azaspiro[4.5]dec-3-en-2-one] |  | < 4.70 | 5.62
Cc1ccc(-c2ccc(Cl)cc2)cc1C1=C(O)CN(C(C)C)C1=O [1-17, 3-(4′-chloro-4-methylbiphenyl-3-yl)-4-hydroxy-1-(propan-2-yl)-1,5-dihydro-2H-pyrrol-2-one] |  | 4.94 | 6.26
Cc1ccc(-c2ccc(Cl)cc2)cc1C1=C(O)CN(C2CC2)C1=O [1-18, 3-(4′-chloro-4-methylbiphenyl-3-yl)-1-cyclopropyl-4-hydroxy-1,5-dihydro-2H-pyrrol-2-one] | 6.01 | 4.79 | 
Cc1ccc(-c2ccc(Cl)cc2)cc1C1=C(O)C(C)N(C(C)C)C1=O (stereo not drawn) [1-19, 3-(4′-chloro-4-methylbiphenyl-3-yl)-4-hydroxy-5-methyl-1-(propan-2-yl)-1,5-dihydro-2H-pyrrol-2-one] | 6.27 | ≤ 4.70 | 
Cc1ccc(-c2ccc(Cl)cc2)cc1C1=C(O)C2(Cc3ccccc3C2)NC1=O [1-25, 4′-(4′-chloro-4-methylbiphenyl-3-yl)-3′-hydroxy-1,3-dihydrospiro[inden-2,2′-pyrrol]-5′(1′H)-one] | 6.54 | 5.42 | 
CCOC1CCC2(CC1)NC(=O)C(c1cc(-c3ccc(Cl)cc3)ccc1C)=C2O (stereo not drawn) [1-28, 3-(4′-chloro-4-methylbiphenyl-3-yl)-8-ethoxy-4-hydroxy-1-azaspiro[4.5]dec-3-en-2-one] | 6.36 | 5.68 | 
Cc1ccc(-c2ccc(F)cc2)c(C)c1C1=C(O)C2(CCC(OCC(F)(F)F)CC2)NC1=O (stereo not drawn) [1-31, 3-(4′-fluoro-2,4-dimethylbiphenyl-3-yl)-4-hydroxy-8-(2,2,2-trifluoroethoxy)-1-azaspiro[4.5]dec-3-en-2-one] |  | 5.10 | 6.09
Cc1ccc(-c2ccc(F)cc2)c(C)c1C1=C(O)C2(CCCCC2)NC1=O [1-40, 3-(4′-fluoro-2,4-dimethylbiphenyl-3-yl)-4-hydroxy-1-azaspiro[4.5]dec-3-en-2-one] | 5.88 | < 4.70 | 
COCC1(C)NC(=O)C(c2cc(-c3ccc(Cl)cc3)ccc2C)=C1O (stereo not drawn) [1-46, 3-(4′-chloro-4-methylbiphenyl-3-yl)-4-hydroxy-5-(methoxymethyl)-5-methyl-1,5-dihydro-2H-pyrrol-2-one] |  | < 4.70 | 5.95
COCCC1CCCC2(C1)NC(=O)C(c1c(C)ccc(-c3ccc(Cl)cc3)c1C)=C2O (stereo not drawn) [1-55, 3-(4′-chloro-2,4-dimethylbiphenyl-3-yl)-4-hydroxy-7-(2-methoxyethyl)-1-azaspiro[4.5]dec-3-en-2-one] | 6.03 | 5.48 | 
O=C1NC2(CCC3(CC2)OCCCO3)C(O)=C1c1cc(-c2ccc(Cl)cc2)ccc1Cl [1-58, 3-(4,4′-dichlorobiphenyl-3-yl)-4-hydroxy-9,13-dioxa-1-azadispiro[4.2.5.2]pentadec-3-en-2-one] |  | 4.70 | 6.36
Cc1ccc(-c2ccc(Cl)cc2)cc1C1=C(O)C2(CCC3(CC2)OCCCO3)NC1=O [1-59, 3-(4′-chloro-4-methylbiphenyl-3-yl)-4-hydroxy-9,13-dioxa-1-azadispiro[4.2.5.2]pentadec-3-en-2-one] |  | 4.94 | 6.58
Cc1ccc(-c2ccc(Cl)cc2)cc1C1=C(O)C2(CCC3(CC2)OCCO3)NC1=O [1-60, 11-(4′-chloro-4-methylbiphenyl-3-yl)-12-hydroxy-1,4-dioxa-9-azadispiro[4.2.4.2]tetradec-11-en-10-one] |  | 5.22 | 6.72
O=C1NC2(CCC3(CC2)OCCO3)C(O)=C1c1cc(-c2ccc(Cl)cc2)ccc1Cl [1-61, 11-(4,4′-dichlorobiphenyl-3-yl)-12-hydroxy-1,4-dioxa-9-azadispiro[4.2.4.2]tetradec-11-en-10-one] |  | 5.04 | 7.06
Cc1ccc(-c2ccc(Cl)cc2)c(C)c1C1=C(O)C2(CCC3(CC2)OCC(C)O3)NC1=O (stereo not drawn) [1-62, 11-(4′-chloro-2,4-dimethylbiphenyl-3-yl)-12-hydroxy-2-methyl-1,4-dioxa-9-azadispiro[4.2.4.2]tetradec-11-en-10-one] | 6.41 | 5.24 | 
Cc1ccc(-c2ccc(Cl)cc2)cc1C1=C(O)C2(CCC3(CC2)OCC(C)O3)NC1=O (stereo not drawn) [1-63, 11-(4′-chloro-4-methylbiphenyl-3-yl)-12-hydroxy-2-methyl-1,4-dioxa-9-azadispiro[4.2.4.2]tetradec-11-en-10-one] |  | 5.14 | 6.56
Cc1ccc(-c2ccc(Cl)cc2)cc1C1=C(O)C2(CCC3(CC2)OC(C)C(C)O3)NC1=O (stereo not drawn) [1-64, 11-(4′-chloro-4-methylbiphenyl-3-yl)-12-hydroxy-2,3-dimethyl-1,4-dioxa-9-azadispiro[4.2.4.2]tetradec-11-en-10-one] |  | < 4.70 | 6.24

SMILES | pIC50 [1, 3] | pIC50 [2] | pIC50 [1]
CC1(C)COC2(CCC3(CC2)NC(=O)C(c2cc(-c4ccc(Cl)cc4)ccc2Cl)=C3O)OC1 [1-65, 3-(4,4′-dichlorobiphenyl-3-yl)-4-hydroxy-11,11-dimethyl-9,13-dioxa-1-azadispiro[4.2.5.2]pentadec-3-en-2-one] | 5.94 | 4.83 | 
Cc1ccc(-c2ccc(Cl)cc2)cc1C1=C(O)C2(CCC3(CC2)OCC(C)CO3)NC1=O (stereo not drawn) [1-66, 3-(4′-chloro-4-methylbiphenyl-3-yl)-4-hydroxy-11-methyl-9,13-dioxa-1-azadispiro[4.2.5.2]pentadec-3-en-2-one] |  | 5.50 | 6.31
Cc1ccc(-c2ccc(Cl)cc2)cc1C1=C(O)C2(CCC3(CC2)OCC(C)(C)CO3)NC1=O [1-67, 3-(4′-chloro-4-methylbiphenyl-3-yl)-4-hydroxy-11,11-dimethyl-9,13-dioxa-1-azadispiro[4.2.5.2]pentadec-3-en-2-one] | 6.04 | 5.28 | 
CC1COC2(CCC3(CC2)NC(=O)C(c2cc(-c4ccc(Cl)cc4)ccc2Cl)=C3O)O1 (stereo not drawn) [1-68, 11-(4,4′-dichlorobiphenyl-3-yl)-12-hydroxy-2-methyl-1,4-dioxa-9-azadispiro[4.2.4.2]tetradec-11-en-10-one] |  | 5.23 | 6.26
CC1COC2(CCC3(CC2)NC(=O)C(c2cc(-c4ccc(Cl)cc4)ccc2Cl)=C3O)OC1 (stereo not drawn) [1-69, 3-(4,4′-dichlorobiphenyl-3-yl)-4-hydroxy-11-methyl-9,13-dioxa-1-azadispiro[4.2.5.2]pentadec-3-en-2-one] | 6.08 | < 4.70 | 
Cc1ccc(-c2ccc(Cl)cc2)c(C)c1C1=C(O)C2(CCC3(CC2)OCCO3)NC1=O [1-70, 11-(4′-chloro-2,4-dimethylbiphenyl-3-yl)-12-hydroxy-1,4-dioxa-9-azadispiro[4.2.4.2]tetradec-11-en-10-one] |  | 5.53 | 6.54
COC1CCCC2(C1)NC(=O)C(c1c(C)ccc(-c3ccc(Cl)cc3)c1C)=C2O (stereo not drawn) [1-72, 3-(4′-chloro-2,4-dimethylbiphenyl-3-yl)-4-hydroxy-7-methoxy-1-azaspiro[4.5]dec-3-en-2-one] |  | 4.83 | 5.94
CCOC1CCCC2(C1)NC(=O)C(c1c(C)ccc(-c3ccc(Cl)cc3)c1C)=C2O (stereo not drawn) [1-73, 3-(4′-chloro-2,4-dimethylbiphenyl-3-yl)-7-ethoxy-4-hydroxy-1-azaspiro[4.5]dec-3-en-2-one] | 6.25 | < 4.70 | 
CCOC1CCC2(CC1)NC(=O)C(c1c(C)cc(C)c(-c3ccc(Cl)cc3)c1C)=C2O (stereo not drawn) [1-75, 3-(4′-chloro-2,4,6-trimethylbiphenyl-3-yl)-8-ethoxy-4-hydroxy-1-azaspiro[4.5]dec-3-en-2-one] |  | 6.10 | 5.25
Cc1ccc(-c2ccc(Cl)cc2)cc1C1=C(O)C(C)(C(C)C)NC1=O (stereo not drawn) [1-78, 3-(4′-chloro-4-methylbiphenyl-3-yl)-4-hydroxy-5-methyl-5-(propan-2-yl)-1,5-dihydro-2H-pyrrol-2-one] | 6.02 | 5.09 | 
COC1CCC2(CC1)NC(=O)C(c1cc(-c3ccc(Cl)c(Cl)c3)ccc1C)=C2O (stereo not drawn) [1-81, 3-(3′,4′-dichloro-4-methylbiphenyl-3-yl)-4-hydroxy-8-methoxy-1-azaspiro[4.5]dec-3-en-2-one] |  | 5.58 | 
Cc1ccc(-c2ccc(Cl)cc2)cc1-c1c(O)c2ccccc2[nH]c1=O [9-5, 3-(4′-chloro-4-methylbiphenyl-3-yl)-4-hydroxyquinolin-2(1H)-one] | 6.18 |  | 
Cc1ccc(-c2ccc(Cl)cc2)cc1-c1c(O)c2ccc(F)cc2[nH]c1=O [9-8, 3-(4′-chloro-4-methylbiphenyl-3-yl)-7-fluoro-4-hydroxyquinolin-2(1H)-one] | 6.76 |  | 
Cc1ccc(-c2ccc(F)cc2)cc1-c1c(O)c2ccc(F)cc2[nH]c1=O [9-9, 7 fluoro-3-(4′-fluoro-4-methylbiphenyl-3-yl)-4-hydroxyquinolin-2(1H)-one] | 5.53 |  | 
Cc1ccc(-c2ccc(C(F)(F)F)cc2)cc1-c1c(O)c2ccc(F)cc2[nH]c1=O [9-10] | 5.85 |  | 
CC1(C)OC(=O)C(c2cc(-c3ccc(Cl)cc3)ccc2Cl)=C(O)C1(C)C [10-1, 3-(4,4′-dichlorobiphenyl-3-yl)-4-hydroxy-5,5,6,6-tetramethyl-5,6-dihydro-2H-pyran-2-one] |  |  | 5.97
Cc1ccc(-c2ccc(Cl)cc2)cc1C1=C(O)C(C)(C)C(C)(C)OC1=O [10-2, 3-(4′-chloro-4-methylbiphenyl-3-yl)-4-hydroxy-5,5,6,6-tetramethyl-5,6-dihydro-2H-pyran-2-one] |  |  | 6.12
